Assay results from patent US12441726B2, “Compounds and uses thereof” (Foghorn Therapeutics Inc., priority 2020, dated 2025).

How the values were obtained:
BRM = BRM (Homo sapiens, UniProt P51531); test: ATPase catalytic activity assay (ADP-Glo), BRM; settings: 30 nM BRM, 400 μM ATP; for IC50: BRM ATPase: IC50 (uM)
BRG-1 = BRG-1 (Homo sapiens, UniProt P51532); test: ATPase catalytic activity assay (ADP-Glo), BRG-1; settings: for Emax: 1 h, read-out: BRG1 Max % Inhibition, ADP-Glo, 30 nM BRG-1, 400 μM ATP
Chain of BRG-1 (P51532 whole entry): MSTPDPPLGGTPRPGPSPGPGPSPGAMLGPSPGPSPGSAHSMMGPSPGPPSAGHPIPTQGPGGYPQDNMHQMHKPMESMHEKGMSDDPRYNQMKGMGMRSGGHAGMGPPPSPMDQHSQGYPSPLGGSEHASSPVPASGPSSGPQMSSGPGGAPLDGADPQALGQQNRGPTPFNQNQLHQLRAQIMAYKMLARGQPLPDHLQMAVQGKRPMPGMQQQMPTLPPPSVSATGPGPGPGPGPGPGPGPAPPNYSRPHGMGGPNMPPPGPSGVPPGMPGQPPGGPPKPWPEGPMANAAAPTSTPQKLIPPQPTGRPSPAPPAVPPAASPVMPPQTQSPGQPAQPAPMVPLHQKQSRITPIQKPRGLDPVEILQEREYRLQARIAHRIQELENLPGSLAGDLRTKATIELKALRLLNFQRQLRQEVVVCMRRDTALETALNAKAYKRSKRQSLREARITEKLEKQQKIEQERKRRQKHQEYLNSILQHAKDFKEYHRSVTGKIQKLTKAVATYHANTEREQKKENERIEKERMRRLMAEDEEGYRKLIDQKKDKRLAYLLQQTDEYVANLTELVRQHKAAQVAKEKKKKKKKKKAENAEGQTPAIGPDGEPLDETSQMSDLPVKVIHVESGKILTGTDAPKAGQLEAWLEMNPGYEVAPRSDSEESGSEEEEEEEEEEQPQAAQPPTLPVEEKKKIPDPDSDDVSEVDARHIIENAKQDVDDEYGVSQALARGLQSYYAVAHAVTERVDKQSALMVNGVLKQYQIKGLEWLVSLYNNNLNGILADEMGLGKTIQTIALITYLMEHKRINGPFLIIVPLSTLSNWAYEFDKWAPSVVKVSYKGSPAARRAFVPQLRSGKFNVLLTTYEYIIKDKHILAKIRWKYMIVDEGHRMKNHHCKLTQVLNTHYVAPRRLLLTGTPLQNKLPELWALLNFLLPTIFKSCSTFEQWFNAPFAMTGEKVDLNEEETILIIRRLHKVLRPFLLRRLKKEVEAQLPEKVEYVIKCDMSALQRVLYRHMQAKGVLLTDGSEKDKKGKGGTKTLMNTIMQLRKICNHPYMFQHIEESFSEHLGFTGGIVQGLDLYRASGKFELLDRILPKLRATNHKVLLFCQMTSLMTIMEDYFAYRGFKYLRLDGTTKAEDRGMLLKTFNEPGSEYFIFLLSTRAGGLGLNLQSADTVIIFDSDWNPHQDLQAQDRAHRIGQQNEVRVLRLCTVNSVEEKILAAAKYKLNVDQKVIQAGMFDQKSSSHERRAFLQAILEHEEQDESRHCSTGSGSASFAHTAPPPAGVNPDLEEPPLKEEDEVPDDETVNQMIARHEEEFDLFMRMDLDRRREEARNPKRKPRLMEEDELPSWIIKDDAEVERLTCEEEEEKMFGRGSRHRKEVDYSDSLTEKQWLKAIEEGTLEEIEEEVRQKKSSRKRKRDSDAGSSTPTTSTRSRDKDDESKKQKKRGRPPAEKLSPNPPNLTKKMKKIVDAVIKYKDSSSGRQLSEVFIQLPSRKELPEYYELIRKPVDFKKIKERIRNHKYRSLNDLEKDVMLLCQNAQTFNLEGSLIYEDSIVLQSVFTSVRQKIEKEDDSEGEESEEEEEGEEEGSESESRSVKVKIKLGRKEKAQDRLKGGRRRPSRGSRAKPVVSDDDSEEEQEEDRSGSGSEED

Chain of BRM (P51531 whole entry): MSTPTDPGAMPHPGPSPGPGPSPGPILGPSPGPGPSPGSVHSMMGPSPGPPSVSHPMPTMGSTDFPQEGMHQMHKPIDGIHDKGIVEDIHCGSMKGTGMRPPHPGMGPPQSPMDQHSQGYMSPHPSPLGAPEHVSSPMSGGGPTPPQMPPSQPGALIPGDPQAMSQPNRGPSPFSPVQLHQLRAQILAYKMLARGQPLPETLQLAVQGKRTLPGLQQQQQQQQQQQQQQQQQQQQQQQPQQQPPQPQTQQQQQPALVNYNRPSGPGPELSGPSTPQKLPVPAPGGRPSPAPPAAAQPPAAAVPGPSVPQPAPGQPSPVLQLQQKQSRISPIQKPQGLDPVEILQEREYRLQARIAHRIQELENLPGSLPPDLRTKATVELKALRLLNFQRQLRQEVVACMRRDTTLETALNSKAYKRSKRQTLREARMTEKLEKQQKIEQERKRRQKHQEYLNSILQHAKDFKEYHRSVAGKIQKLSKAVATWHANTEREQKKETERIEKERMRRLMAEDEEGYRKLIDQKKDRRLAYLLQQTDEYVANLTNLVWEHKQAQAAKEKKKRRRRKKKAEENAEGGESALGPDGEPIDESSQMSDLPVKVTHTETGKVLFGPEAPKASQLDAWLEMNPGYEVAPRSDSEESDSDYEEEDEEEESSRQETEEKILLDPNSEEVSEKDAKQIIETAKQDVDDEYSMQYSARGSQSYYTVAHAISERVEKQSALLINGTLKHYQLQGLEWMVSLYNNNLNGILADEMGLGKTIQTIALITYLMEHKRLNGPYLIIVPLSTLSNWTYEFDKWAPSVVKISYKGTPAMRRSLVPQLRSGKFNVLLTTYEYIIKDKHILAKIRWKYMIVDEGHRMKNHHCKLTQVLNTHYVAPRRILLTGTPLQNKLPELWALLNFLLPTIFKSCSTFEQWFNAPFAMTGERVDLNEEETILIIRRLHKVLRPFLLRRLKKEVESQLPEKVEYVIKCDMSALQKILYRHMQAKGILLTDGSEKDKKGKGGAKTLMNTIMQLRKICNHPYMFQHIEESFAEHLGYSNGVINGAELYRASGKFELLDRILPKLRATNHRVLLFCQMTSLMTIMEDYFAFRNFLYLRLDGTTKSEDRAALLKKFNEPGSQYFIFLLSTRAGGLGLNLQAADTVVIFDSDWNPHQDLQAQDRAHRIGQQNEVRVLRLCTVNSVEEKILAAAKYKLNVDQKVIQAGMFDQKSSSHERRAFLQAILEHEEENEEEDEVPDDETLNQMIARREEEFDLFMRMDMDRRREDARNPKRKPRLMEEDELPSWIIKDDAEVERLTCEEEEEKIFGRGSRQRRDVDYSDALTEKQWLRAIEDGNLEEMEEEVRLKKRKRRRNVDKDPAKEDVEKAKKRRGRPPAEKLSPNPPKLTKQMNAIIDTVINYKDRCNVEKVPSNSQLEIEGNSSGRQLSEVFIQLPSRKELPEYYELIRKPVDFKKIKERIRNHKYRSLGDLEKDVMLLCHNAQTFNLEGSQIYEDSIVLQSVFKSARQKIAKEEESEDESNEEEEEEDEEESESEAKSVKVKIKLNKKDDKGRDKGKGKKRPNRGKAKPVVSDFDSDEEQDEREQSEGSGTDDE

Row | Structure (SMILES) | BRM Max % Inhibition (BRM) | IC50 (BRM) | IC50 (BRG-1) | Emax (BRG-1)
1 | C[C@@]1(C#N)COCc2ccc(C(=O)NCc3cc4cc(-c5ccnc(C6CC6)n5)cnc4cn3)cc21 [Compound 337] | 99% | 0.1 to 0.5 µM | 500 to 1000 nM | 63%
2 | COc1nn(C)cc1-c1cnc2cnc(CNC(=O)c3ccc4c(c3)[C@](C)(F)COC4)cc2c1 [Compound 338] | 97% | 0.1 to 0.5 µM | 500 to 1000 nM | 56%
3 | CO[C@H]1CCN(c2nccc(-c3ccc4cnc(CNC(=O)c5ccc6c(c5)[C@](C)(C#N)COC6)cc4n3)n2)C1 [Compound 339] | 100% | < 0.1 µM | 100 to 500 nM | 95%
4 | C[C@@]1(C#N)COCc2ccc(C(=O)NCc3cc4nc(-c5ccnc(N6C[C@@H]7C[C@H]6CO7)n5)ccc4cn3)cc21 [Compound 340] | 99% | < 0.1 µM | 100 to 500 nM | 91%
5 | C[C@@]1(C#N)COCc2ccc(C(=O)NCc3cc4nc(-c5ccnc(N6CC[C@H](F)C6)n5)ccc4cn3)cc21 [Compound 341] | 100% | < 0.1 µM | 100 to 500 nM | 93%
6 | C[C@@]1(C#N)COCc2ccc(C(=O)NCc3cc4cc(-c5cncc(C6CC6)n5)cnc4cn3)cc21 [Compound 342] | 97% | < 0.1 µM | 500 to 1000 nM | 80%
7 | COc1nn(C)cc1-c1ccc2cnc(CNC(=O)c3ccc4c(c3)[C@](C)(F)COC4)cc2n1 [Compound 343] | 101% | < 0.1 µM | 500 to 1000 nM | 78%
8 | COc1cncc(-c2nc3cc(CNC(=O)c4ccc5c(c4)[C@](C)(C#N)COC5)ncc3s2)n1 [Compound 344] | 94% | 0.1 to 0.5 µM | 500 to 1000 nM | 57%
9 | COC(=O)N1CCC=C(c2ccc3cnc(CNC(=O)c4ccc5c(c4)[C@](C)(F)COC5)cc3n2)C1 [Compound 345] | 81% | 0.1 to 0.5 µM | > 1000 nM | 25%
10 | Cn1ccc2ncc(-c3ccc4cnc(CNC(=O)c5ccc6c(c5)[C@](C)(C#N)COC6)cc4n3)nc21 [Compound 346] | 102% | < 0.1 µM | < 100 nM | 94%
11 | C[C@@]1(F)COCc2ccc(C(=O)NCc3cc4cc(-c5cccc(N6CCC6)n5)cnc4cn3)cc21 [Compound 347] | 100% | < 0.1 µM | 100 to 500 nM | 79%
12 | C[C@@]1(C#N)COCc2ccc(C(=O)NCc3cc4nc(-c5ccnc(N6CCC6)n5)sc4cn3)cc21 [Compound 348] | 99% | < 0.1 µM | 500 to 1000 nM | 72%
13 | COc1cncc(-c2ccc3nnc(CNC(=O)c4ccc5c(c4)[C@](C)(C#N)COC5)cc3c2)n1 [Compound 349] | 100% | < 0.1 µM | 100 to 500 nM | 87%
14 | C[C@@]1(C#N)COCc2ccc(C(=O)NCc3cc4nc(N5CCCN(C6CCC6)C5=O)ccc4cn3)cc21 [Compound 350] | 96% | 0.1 to 0.5 µM | > 1000 nM | 54%
15 | C[C@@]1(C#N)COCc2ccc(C(=O)NCc3cc4cc(-c5cccc(N6CCC6)n5)ccc4nn3)cc21 [Compound 351] | 101% | < 0.1 µM | 100 to 500 nM | 95%
16 | O=C(NCc1cc2nc(-c3cncc(N4CCC4)n3)ccc2cn1)c1cc(F)c2c(c1)[C@@](F)(C(F)F)COC2 [Compound 352] | 99% | < 0.1 µM | 100 to 500 nM | 89%
17 | C[C@@]1(C#N)COCc2ccc(C(=O)NCc3cc4nc(-c5cncc(N6CCC6)n5)sc4cn3)cc21 [Compound 353] | 93% | < 0.1 µM | 100 to 500 nM | 82%
18 | COc1ncccc1-c1nc2cc(CNC(=O)c3ccc4c(c3)[C@](C)(C#N)COC4)ncc2s1 [Compound 354] | 79% | 0.1 to 0.5 µM | > 1000 nM | 39%
19 | C[C@@]1(C#N)COCc2ccc(C(=O)NCc3cc4nc(-c5cncc(C(F)F)n5)ccc4cn3)cc21 [Compound 355] | 93% | 0.1 to 0.5 µM | 500 to 1000 nM | 74%
20 | C[C@@]1(C#N)COCc2ccc(C(=O)NCc3cc4cc(-c5cncc(N6CCC6)n5)ccc4nn3)cc21 [Compound 356] | 97% | < 0.1 µM | 100 to 500 nM | 95%
21 | COc1ncccc1-c1ccc2nnc(CNC(=O)c3ccc4c(c3)[C@](C)(C#N)COC4)cc2c1 [Compound 357] | 97% | < 0.1 µM | 100 to 500 nM | 87%

Row | Structure (SMILES) | BRM Max % Inhibition (BRM) | IC50 (BRM) | IC50 (BRG-1) | Emax (BRG-1)
22 | C[C@@]1(C#N)COCc2ccc(C(=O)NCc3cc4nc(-c5ccnc(C(F)F)n5)ccc4cn3)cc21 [Compound 358] | 92% | 0.1 to 0.5 µM | 500 to 1000 nM | 67%
23 | CN1CC(c2cccc(-c3ccc4cnc(CNC(=O)c5ccc6c(c5)[C@](C)(C#N)COC6)cc4n3)n2)C1 [Compound 359] | 89% | 0.1 to 0.5 µM | > 1000 nM | 39%
24 | CN(C)c1cccc(-c2ccc3cnc(CNC(=O)c4ccc5c(c4)[C@](C)(C#N)COC5)cc3n2)n1 [Compound 360] | 99% | < 0.1 µM | > 1000 nM | 99%
25 | C[C@@]1(C#N)COCc2ccc(C(=O)NCc3cc4nc(-c5cccc(N6CCCC6)n5)ccc4cn3)cc21 [Compound 361] | 98% | < 0.1 µM | > 1000 nM | 98%
26 | C[C@@H]1CN(c2nccc(-c3ccc4cnc(CNC(=O)c5ccc6c(c5)[C@](C)(C#N)COC6)cc4n3)n2)CCO1 [Compound 362] | 99% | < 0.1 µM | > 1000 nM | 98%
27 | C[C@@H]1COCCN1c1nccc(-c2ccc3cnc(CNC(=O)c4ccc5c(c4)[C@](C)(C#N)COC5)cc3n2)n1 [Compound 363] | 98% | < 0.1 µM | 100 to 500 nM | 94%
28 | Cn1cc(-c2ccc3cnc(CNC(=O)c4ccc5c(c4)[C@](C)(C#N)COC5)cc3n2)c(F)n1 [Compound 364] | 90% | 0.1 to 0.5 µM | 500 to 1000 nM | 62%
29 | C[C@@]1(C#N)COCc2ccc(C(=O)NCc3cc4cc(-c5nccc(N6CCC6)n5)ccc4cn3)cc21 [Compound 365] | 99% | < 0.1 µM | 100 to 500 nM | 98%
30 | CO[C@@H]1CCN(c2cncc(-c3ccc4cnc(CNC(=O)c5ccc6c(c5)[C@](C)(C#N)COC6)cc4c3)n2)C1 [Compound 366] | 99% | < 0.1 µM | < 100 nM | 99%
31 | COc1nn(C)cc1-c1ccc2cnc(CNC(=O)c3ccc4c(c3)[C@](C)(C#N)COC4)cc2c1 [Compound 367] | 102% | < 0.1 µM | 100 to 500 nM | 93%
32 | C[C@@]1(F)COCc2ccc(C(=O)NCc3cc4cc(-c5cccc(N6CCC6)n5)ccc4cn3)cc21 [Compound 368] | 103% | < 0.1 µM | 100 to 500 nM | 96%
33 | C[C@@]1(C#N)COCc2ccc(C(=O)NCc3cc4cc(-c5cccc(N6CCC6)n5)ccc4cn3)cc21 [Compound 369] | 104% | < 0.1 µM | < 100 nM | 95%
34 | C[C@@]1(F)COCc2ccc(C(=O)NCc3cc4cc(-c5cncc(N6CCC6)n5)ccc4cn3)cc21 [Compound 370] | 103% | < 0.1 µM | 100 to 500 nM | 96%
35 | C[C@@]1(C#N)COCc2ccc(C(=O)NCc3cc4cc(-c5cncc(N6CCC6)n5)ccc4cn3)cc21 [Compound 371] | 104% | < 0.1 µM | < 100 nM | 97%
36 | C[C@@]1(C#N)COCc2ccc(C(=O)NCc3cc4cc(-c5nccc(N6CCC6)n5)cnc4cn3)cc21 [Compound 372] | 93% | 0.1 to 0.5 µM | > 1000 nM | 47%
37 | C[C@@]1(C#N)COCc2ccc(C(=O)NCc3cc4nc(-c5cccc(N6CCOCC6)n5)ccc4cn3)cc21 [Compound 373] | 103% | < 0.1 µM | < 100 nM | 100%
38 | C[C@@]1(C#N)COCc2ccc(C(=O)NCc3cc4nc(-c5cncc(N6CC(F)C6)n5)ccc4cn3)cc21 [Compound 374] | 101% | < 0.1 µM | 100 to 500 nM | 94%
39 | O=C(NCc1cc2nc(-c3cncc(N4CCC4)n3)ccc2cn1)c1cc(F)c2c(c1)[C@](F)(C(F)F)COC2 [Compound 375] | 100% | < 0.1 µM | < 100 nM | 101%
40 | C[C@H]1COCCN1c1nccc(-c2ccc3cnc(CNC(=O)c4ccc5c(c4)[C@](C)(C#N)COC5)cc3n2)n1 [Compound 376] | 98% | 0.1 to 0.5 µM | 500 to 1000 nM | 79%
41 | C[C@@]1(C#N)COCc2ccc(C(=O)NCc3cc4cc(-c5ccnc(N6CCC6)n5)cnc4cn3)cc21 [Compound 377] | 98% | < 0.1 µM | 500 to 1000 nM | 89%
42 | C[C@@]1(C#N)COCc2ccc(C(=O)NCc3cc4nc(-c5cccc(N6CCCC6=O)n5)ccc4cn3)cc21 [Compound 378] | 100% | < 0.1 µM | 100 to 500 nM | 99%
